Patent US20230276792A1, “SELECTIVE HERBICIDES BASED ON SUBSTITUTED ISOXAZOLIN CARBOXAMIDES AND CLOQUINTOCET-MEXYL” (Bayer Aktiengesellschaft, priority 2020, published 2023)

Assays:
Assay type in all cases: in vivo
[1] = system: spring wheat, TRZAS Triso; assay: Safener seed treatment, post-emergence herbicide application, crop damage; details: for HER effect + SAF [%] / Reduction [%]: cloquintocet-mexyl 0, 5 g a.i./kg seed; for HER effect [%]: without safener
Source text: (§1) For safener seed treatment trials, sufficient seed amounts of the respective crops (spring wheat (TRZAS); spring barley (HORVS)) were weighed into screw cap glass bottles with a minimum volume trice of the seeds.
(§2) As a first step, specified safeners formulated as wettable powder (WP) or wettable granules (WG) were weighed out for the required dosages (g a.i./kg seed), corresponding to the seed amounts. The safener amounts were mixed with a coloured slurry blind formulation type, pre-diluted with milk at 3.5% fat rate (25 mgs slurry formulation plus 2 ml milk per 10 grams of seed). A tube roller was used for coating. The solutions were gradually pipetted each on the rotating seeds followed by coating for min. 3 hours until all liquid had been soaked up by the seeds. Thereafter, the coated seeds were put flat on open trays for drying over night at room temperature.
(§3) Treated seeds were then placed into pots (7 cm diameter) on the surface of sandy loam, pressed down, flat covered with additional soil and finally covered with sandy soil, also pressed down, watered, and kept under good growth conditions in a greenhouse, until the plants had reached 2-leaf-stage (BBCH 12).
(§4) At that stage, post-emergence application of the specified herbicides was done on: • a) pot sets containing plants with safener-coated seeds as described above, • b) as a reference, pot sets of plants without seed treatment.
(§5) The herbicides were formulated as wettable powder (WP). Equivalent to the spray area, compound amounts were weighed out and diluted related to the water application rate (300 l/ha) to an aqueous suspension plus additive (1 l/ha MERO). Dosage related equivalents were conventionally sprayed on trays with the potted plants.
(§6) After application, the test plants were kept under good growth conditions in a greenhouse. Assessment timings were 10 and 21 days after treatment (DAT) with the herbicide, by visual scoring of the crop damage in % (comparison of untreated with treated plants, either sprayed only with herbicide or with herbicide on plants with treated seeds).
(§7) Reduction [Difference]=herbicide damage without safener−herbicide damage with safener
(§8) Reduction [%]=(Reduction [Difference]*100)/herbicide damage without safener
b) Plant Species, Variety: TRZAS Triso, Safener (SAF): Cloquintocet-Mexyl

[2] = system: spring barley, HORVS Montoya; assay: as above; parameters: key to Reduction [Difference]: % crop damage without safener minus % damage with safener; details: for Reduction [%] / HER effect + SAF / Reduction [Difference]: cloquintocet-mexyl 0, 5 g a.i./kg seed; for HER effect: without safener
Source text: as §1, §2, §3, §4, §5, §6, §7, §8
(§9) a) Plant Species, Variety: HORVS Montoya, Safener (SAF): Cloquintocet-Mexyl

[3] = system: spring barley, HORVS Montoya; assay: Tank-mix post-emergence crop damage, herbicide with and without safener cloquintocet-mexyl, greenhouse; parameters: key to Reduction [Difference]: damage without safener − damage with safener, % points (0–100% scale)
Procedure: Seeds of crops (spring wheat, TRZAS; spring barley, HORVS; maize, ZEAMA) were placed in sandy loam soil in peat pots, covered with soil and cultivated in a greenhouse under good growth conditions. Two to three weeks after sowing, the test plants were treated at the 1 to 3-leaf stage. The herbicide/safener active compound combinations according to the invention, formulated as wettable powders or emulsion concentrates, and, in parallel tests, the correspondingly formulated individual active compounds were sprayed onto the green parts of the plants in various dosages using an amount of water of 300 l/ha (converted).
The pots were returned under good growing conditions in a glasshouse and a visual assessment of herbicidal effects was made at intervals from 1 to 3 weeks after herbicide application (DAT=days after treatment). Assessment was on a percentage basis in comparison with untreated control plants (0%=no injury, 100%=complete kill).
as §7, §8, §9

[4] = 10 DAT, HER dose 48 g a.i./ha, cloquintocet-mexyl 100 g a.i./ha
[5] = 21 DAT, HER dose 2 g a.i./ha, cloquintocet-mexyl 100 g a.i./ha
[6] = 10 DAT, HER dose 1, 5 g a.i./ha

CC(C)OC(=O)C1CC(NC(=O)C2(C(C)(F)F)CC(c3cc(F)cc(F)c3)=NO2)CO1 (mixture of isomers) [Example 1.88]
HER effect + SAF [%] ([1]; 21 DAT, HER dose 2 g a.i./ha): 20%
Reduction [%] ([1]; 21 DAT, HER dose 2 g a.i./ha): 71%
HER effect [%] ([1]; 21 DAT, HER dose 2 g a.i./ha): 70%
HER effect + SAF [%] ([1]; 21 DAT, HER dose 8 g a.i./ha): 20%
HER effect [%] ([1]; 21 DAT, HER dose 8 g a.i./ha): 85%
Reduction [%] ([2]; 21 DAT, HER dose 2 g a.i./ha): 40%
HER effect + SAF ([2]; 21 DAT, HER dose 8 g a.i./ha): 40%
Reduction [%] ([2]; 21 DAT, HER dose 8 g a.i./ha): 53%
Reduction [Difference] ([2]; 21 DAT, HER dose 8 g a.i./ha): 45
Reduction [%] ([3]; 21 DAT, HER dose 1, 5 g a.i./ha, cloquintocet-mexyl 50 g a.i./ha): 50%

C=CC1(C(=O)NC2COC(C(=O)OCCOC)C2)CC(c2cc(C)cc(F)c2)=NO1 (mixture of isomers) [Example 1.65]
HER effect + SAF [%] ([1]; 10 DAT, HER dose 8 g a.i./ha): 0%
HER effect [%] ([1]; 10 DAT, HER dose 8 g a.i./ha): 20%
Reduction [Difference] ([2]; 10 DAT, HER dose 8 g a.i./ha): 80
HER effect + SAF ([2]; 10 DAT, HER dose 32 g a.i./ha): 10%
Reduction [%] ([2]; 10 DAT, HER dose 32 g a.i./ha): 88%
Reduction [Difference] ([2]; 10 DAT, HER dose 32 g a.i./ha): 70

CCOC(=O)C1C=CC(NC(=O)C2(C(F)(F)F)CC(c3cc(OC)cc(OC)c3)=NO2)C1 (mixture of isomers) [Example 1.12]
HER effect + SAF [3, 4]: 10%
Reduction [%] [3, 4]: 83%
Reduction [Difference] [3, 4]: 50

C=CC1(C(=O)NC2C=CC(C(=O)OC)C2)CC(c2cc(F)cc(F)c2)=NO1 (stereo not shown) [Example 1.26]
HER effect + SAF [%] ([1]; 21 DAT, HER dose 2 g a.i./ha): 10%
Reduction [%] ([1]; 21 DAT, HER dose 2 g a.i./ha): 89%
HER effect [%] ([1]; 21 DAT, HER dose 2 g a.i./ha): 90%
HER effect + SAF [%] ([1]; 21 DAT, HER dose 8 g a.i./ha): 30%
Reduction [%] ([1]; 21 DAT, HER dose 8 g a.i./ha): 68%
HER effect [%] ([1]; 21 DAT, HER dose 8 g a.i./ha): 93%
HER effect + SAF ([2]; 21 DAT, HER dose 2 g a.i./ha): 30%
Reduction [%] ([2]; 21 DAT, HER dose 2 g a.i./ha): 68%
Reduction [Difference] ([2]; 21 DAT, HER dose 2 g a.i./ha): 63
HER effect ([2]; 21 DAT, HER dose 2 g a.i./ha): 93%
Reduction [%] ([2]; 21 DAT, HER dose 8 g a.i./ha): 47%
Reduction [Difference] ([2]; 21 DAT, HER dose 8 g a.i./ha): 45
HER effect ([2]; 21 DAT, HER dose 8 g a.i./ha): 95%
HER effect + SAF [3, 5]: 10%
Reduction [%] [3, 5]: 83%
Reduction [Difference] [3, 5]: 50

CC(C)OC(=O)C1CC(NC(=O)C2(C)CC(c3cccc(F)c3)=NO2)CO1 (mixture of isomers) [Example 1.78]
HER effect + SAF [%] [1, 6]: 0%
HER effect [%] [1, 6]: 20%
HER effect + SAF [%] ([1]; 10 DAT, HER dose 6 g a.i./ha): 0%
HER effect [%] ([1]; 10 DAT, HER dose 6 g a.i./ha): 70%
HER effect + SAF [%] ([1]; 10 DAT, HER dose 24 g a.i./ha): 10%
HER effect [%] ([1]; 10 DAT, HER dose 24 g a.i./ha): 70%

CCOC(=O)C1CC(NC(=O)C2(C)CC(c3cccc(F)c3)=NO2)CO1 (mixture of isomers) [Example 1.67]
HER effect + SAF [%] ([1]; 10 DAT, HER dose 4 g a.i./ha): 10%
HER effect [%] ([1]; 10 DAT, HER dose 4 g a.i./ha): 50%
HER effect + SAF [%] ([1]; 10 DAT, HER dose 16 g a.i./ha): 20%
HER effect [%] ([1]; 10 DAT, HER dose 16 g a.i./ha): 70%
Reduction [%] ([2]; 10 DAT, HER dose 4 g a.i./ha): 67%
Reduction [Difference] ([2]; 10 DAT, HER dose 4 g a.i./ha): 20
Reduction [%] ([2]; 10 DAT, HER dose 16 g a.i./ha): 67%
Reduction [%] ([3]; 10 DAT, HER dose 16 g a.i./ha, cloquintocet-mexyl 100 g a.i./ha): 83%

C=CCOC(=O)C1CC(NC(=O)C2(C=C)CC(c3cc(C)cc(F)c3)=NO2)CO1 (mixture of isomers) [Example 1.85]
HER effect + SAF ([2]; 10 DAT, HER dose 32 g a.i./ha): 10%
Reduction [%] ([2]; 10 DAT, HER dose 32 g a.i./ha): 88%
Reduction [Difference] ([2]; 10 DAT, HER dose 32 g a.i./ha): 70
